Assay results reported in US12011444B2, “N-substituted indole derivatives as PGE2 receptor modulators” (Idorsia Pharmaceuticals Ltd, priority 2015, dated 2024).

Tests used:
EP4 = EP4 (Homo sapiens (Human), UniProt P35408); test: hEP4 cAMP assay (BT549 breast cancer cells, HTRF cAMP); format: cell-based; settings: antagonistic activity; mean values where measured multiple times
Procedure: Plate is pre-incubated 45 minutes at room temperature. Subsequently, 2.5 microliters of PGE2 (final conc. 6 nM) are transferred into the assay plate. Plate is incubated 30 minutes at room temperature.

EP2 = EP2 (Homo sapiens (Human), UniProt P43116);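 note: antagonism of PGE2-stimulated cAMP accumulation in SF295 human glioblastoma cells with endogenous EP2, cAMP read by HTRF, expressed relative to DMSO control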
Chain of EP2 (P43116 whole entry): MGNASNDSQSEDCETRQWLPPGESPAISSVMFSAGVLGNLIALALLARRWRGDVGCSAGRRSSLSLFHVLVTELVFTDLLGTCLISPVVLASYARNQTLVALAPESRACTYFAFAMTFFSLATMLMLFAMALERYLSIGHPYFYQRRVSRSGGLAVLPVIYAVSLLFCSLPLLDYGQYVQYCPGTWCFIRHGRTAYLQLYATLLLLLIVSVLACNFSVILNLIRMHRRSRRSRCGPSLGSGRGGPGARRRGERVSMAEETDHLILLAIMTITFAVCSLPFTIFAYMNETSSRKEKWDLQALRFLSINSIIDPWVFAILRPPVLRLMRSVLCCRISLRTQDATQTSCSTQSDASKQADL

Chain of EP4 (P35408 whole entry): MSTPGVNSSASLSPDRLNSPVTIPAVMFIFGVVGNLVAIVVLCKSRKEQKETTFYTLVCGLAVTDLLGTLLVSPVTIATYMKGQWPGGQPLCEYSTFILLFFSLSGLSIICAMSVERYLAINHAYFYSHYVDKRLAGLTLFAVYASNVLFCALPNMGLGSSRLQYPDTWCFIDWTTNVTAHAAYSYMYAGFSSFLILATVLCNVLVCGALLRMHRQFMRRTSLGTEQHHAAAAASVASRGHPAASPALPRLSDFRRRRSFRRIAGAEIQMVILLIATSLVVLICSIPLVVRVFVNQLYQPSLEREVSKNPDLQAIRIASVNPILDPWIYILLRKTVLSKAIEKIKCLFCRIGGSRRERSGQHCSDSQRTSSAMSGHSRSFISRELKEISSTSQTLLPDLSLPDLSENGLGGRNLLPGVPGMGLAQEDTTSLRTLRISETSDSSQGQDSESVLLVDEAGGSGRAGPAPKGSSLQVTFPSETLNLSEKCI

| IC50 (EP4) [nM] | IC50 (EP2) [nM] | Compound |
| --- | --- | --- |
| 646 | 538 | CCOc1cc(-c2cc(NCCn3c(C)cc4c(OC)ccc(F)c43)ncn2)ccc1CNC1CC1 [compound 473] |
| 259 | 54 | COc1ccc(F)c2c1cc(C)n2CCNc1cc(-c2ccc3c(c2)CN(CC(C)C)C3=O)ncn1 [compound 475] |
| 48 | 18 | COc1ccc(F)c2c1cc(C)n2CCNc1cc(-c2ccc(-c3csc(C(=O)O)n3)cc2)ncn1 [compound 476, 4-(4-{6-[2-(7-Fluoro-4-methoxy-2-methyl-indol-1-yl)-ethylamino]-pyrimidin-4-yl}-phenyl)-thiazole-2-carboxylic acid] |
| 574 | 122 | Cc1noc(-c2ccc(-c3cc(NCCn4c(C)cc5c(C)ccc(F)c54)ncn3)cc2)c1C(=O)O [compound 477] |
| 665 | 11 | COc1ccc(F)c2c1cc(C)n2CCNc1cc(-c2ccc(C(=O)O)c(N3CCCC3)c2)ncn1 [compound 478, 4-{6-[2-(7-Fluoro-4-methoxy-2-methyl-indol-1-yl)-ethylamino]-pyrimidin-4-yl}-2-pyrrolidin-1-yl-benzoic acid] |
| 233 | 127 | Cc1ccc(F)c2c1cc(C)n2CCNc1cc(-c2ccc(C(=O)O)c(NS(C)(=O)=O)c2)ncn1 [compound 479] |
| 75 | 26 | CCOc1cc(-c2cc(NCCn3c(C#N)cc4c(OC)cc(F)cc43)ncn2)ccc1C(=O)O [compound 480] |
| 112 | 61 | Cc1cc(F)cc2c1cc(C#N)n2CCNc1cc(-c2ccc(C(=O)O)c(CC(C)C)c2)ncn1 [compound 481] |
| 986 | 686 | Cc1cc2c(F)ccc(C#N)c2n1CCNc1cc(-c2ccc(C(=O)O)c(CC(C)C)c2)ncn1 [compound 482] |
| 98 | 4 | CCNc1cc(-c2cc(NCCn3c(C)cc4c(OC)ccc(F)c43)ncn2)cc(F)c1C(=O)O [compound 483] |
| 117 | 1 | CCCCOc1cc(-c2cc(NCCn3c(C)cc4c(OC)cccc43)ncn2)ccc1C(=O)O [compound 484] |
| 245 | 3 | COc1cccc2c1cc(C)n2CCNc1cc(-c2ccc(C(=O)O)c(OCC(C)C)c2)ncn1 [compound 485] |
| 325 | 91 | CCOc1cc(-c2cc(NCCn3c(C)cc4c(OC)c(F)cc(Cl)c43)ncn2)ccc1C(=O)O [compound 486] |
| 76 | 49 | CCOc1cc(-c2cc(NCCn3c(C)cc4c(OC)cc(F)c(F)c43)ncn2)ccc1C(=O)O [compound 487] |
| 219 | 70 | CCOc1cc(-c2cc(NCCn3c(C)cc4c(OC)ccc(Cl)c43)ncn2)cc(Cl)c1C(=O)O [compound 488] |
| 103 | 25 | CCOc1cc(-c2cc(NCCn3c(C)cc4c(OC)ccc(F)c43)ncn2)cc(Cl)c1C(=O)O [compound 489] |
| 165 | 17 | CCOc1cc(-c2cc(NCCn3c(C)cc4c(OC)ccc(F)c43)ncn2)cc(F)c1C(=O)O [compound 490] |
| 707 | 765 | CCOc1cc(-c2cc(NCCn3c(C)cc4c(OC)c(Cl)cc(F)c43)ncn2)ccc1C(=O)O [compound 491] |
| 626 | 63 | CCOc1cc(-c2cc(NCCn3c(C)cc4c(OC)cc(F)cc43)nc(C)n2)ccc1C(=O)O [compound 492] |
| 119 | 21 | CCCOc1cc(-c2cc(NCCn3c(C)cc4c(OC)cc(F)cc43)ncn2)ccc1C(=O)O [compound 493] |

| IC50 (EP4) [nM] | IC50 (EP2) [nM] | Compound |
| --- | --- | --- |
| 618 | 25 | CCOc1cc(-c2cc(NCCn3c(C)cc4c(OC)ccc(F)c43)nc(C)n2)ccc1C(=O)O [compound 494] |
| 350 | 21 | CCCOc1cc(-c2cc(NCCn3c(C)cc4c(OC)ccc(Cl)c43)ncn2)ccc1C(=O)O [compound 495] |
| 99 | 8 | CCCOc1cc(-c2cc(NCCn3c(C)cc4c(OC)ccc(F)c43)ncn2)ccc1C(=O)O [compound 496] |
| 168 | 11 | CCCOc1cc(-c2cc(NCCn3c(C)cc4c(OC)cccc43)ncn2)cc(Cl)c1C(=O)O [compound 497] |
| 609 | 20 | CCCOc1cc(-c2cc(NCCn3c(C)cc4c(OC)cccc43)ncn2)cc(F)c1C(=O)O [compound 498] |
| 714 | 6 | COc1cccc2c1cc(C)n2CCNc1cc(-c2ccc(C(=O)O)c(OC(F)(F)F)c2)ncn1 [compound 499] |
| 816 | 17 | Cc1cc2c(F)c(F)cc(Cl)c2n1CCNc1cc(-c2ccc(C(=O)O)c(SC(C)C)c2)ncn1 [compound 500] |
| 69 | 42 | Cc1c(F)cc(F)c2c1cc(C)n2CCNc1cc(-c2ccc(C(=O)O)c(CC(C)C)c2)ncn1 [compound 501] |
| 114 | 149 | Cc1cc(F)c(F)c2c1cc(C)n2CCNc1cc(-c2ccc(C(=O)O)c(CC(C)C)c2)ncn1 [compound 502] |
| 499 | 58 | Cc1nc(NCCn2c(C)cc3c(C)cc(F)cc32)cc(-c2ccc(C(=O)O)c(CC(C)C)c2)n1 [compound 503] |
| 535 | 103 | Cc1c(F)cc(Cl)c2c1cc(C)n2CCNc1cc(-c2ccc(C(=O)O)c(SC(C)C)c2)ncn1 [compound 504] |
| 671 | 21 | Cc1cc2c(F)cc(F)c(F)c2n1CCNc1cc(-c2ccc(C(=O)O)c(CC(C)C)c2)ncn1 [compound 505] |
| 113 | 12 | Cc1cc2c(F)c(F)cc(F)c2n1CCNc1cc(-c2ccc(C(=O)O)c(CC(C)C)c2)ncn1 [compound 506] |
| 163 | 18 | COc1ccc(C)c2c1cc(C)n2CCNc1cc(-c2ccc(C(=O)O)c(CC(C)C)c2)ncn1 [compound 507] |
| 583 | 37 | Cc1ccc(F)c2c1cc(C)n2CCNc1cc(-c2ccc(C(=O)O)c(OC(F)(F)F)c2)ncn1 [compound 508] |
| 684 | 110 | COc1c(F)cc(Cl)c2c1cc(C)n2CCNc1cc(-c2cc(F)c(C(=O)O)c(SC)c2)ncn1 [compound 509] |
| 216 | 20 | Cc1c(F)cc(F)c2c1cc(C)n2CCNc1cc(-c2ccc(C(=O)O)c(OC(F)F)c2)ncn1 [compound 510] |
| 158 | 18 | CCCc1cc(-c2cc(NCCn3c(C)cc4c(OC)cc(Cl)cc43)ncn2)cc(F)c1C(=O)O [compound 511] |
| 253 | 21 | CCCc1cc(-c2cc(NCCn3c(C)cc4c(OC)ccc(Cl)c43)ncn2)cc(F)c1C(=O)O [compound 512] |
| 130 | 24 | CCCc1cc(-c2cc(NCCn3c(C)cc4c(OC)ccc(Cl)c43)ncn2)cc(Cl)c1C(=O)O [compound 513] |

| IC50 (EP4) [nM] | IC50 (EP2) [nM] | Compound |
| --- | --- | --- |
| 56 | 5 | CCCc1cc(-c2cc(NCCn3c(C)cc4c(OC)ccc(F)c43)ncn2)cc(Cl)c1C(=O)O [compound 514] |
| 69 | 8 | CCCc1cc(-c2cc(NCCn3c(C)cc4c(OC)ccc(F)c43)ncn2)cc(F)c1C(=O)O [compound 515] |
| 451 | 324 | CCCc1cc(-c2cc(NCCn3c(C)cc4cc(OC)cc(F)c43)ncn2)cc(F)c1C(=O)O [compound 516] |
| 373 | 97 | CCCc1cc(-c2cc(NCCn3c(C)cc4c(OC)c(F)ccc43)ncn2)cc(Cl)c1C(=O)O [compound 517] |
| 40 | 11 | CCCc1cc(-c2cc(NCCn3c(C)cc4c(OC)cc(Cl)cc43)ncn2)cc(Cl)c1C(=O)O [compound 518] |
| 34 | 5 | CCCc1cc(-c2cc(NCCn3c(C)cc4c(OC)cc(F)cc43)ncn2)cc(Cl)c1C(=O)O [compound 519] |
| 482 | 82 | CCCc1cc(-c2cc(NCCn3c(C)cc4c(OC)c(F)ccc43)ncn2)cc(F)c1C(=O)O [compound 520] |
| 64 | 17 | CCCc1cc(-c2cc(NCCn3c(C)cc4c(OC)cc(F)cc43)ncn2)cc(F)c1C(=O)O [compound 521] |
| 217 | 21 | CCCOc1cc(-c2cc(NCCn3c(C)cc4c(C)cc(Cl)cc43)ncn2)cc(Cl)c1C(=O)O [compound 522] |
| 141 | 35 | CCCOc1cc(-c2cc(NCCn3c(C)cc4c(C)cc(F)cc43)ncn2)cc(Cl)c1C(=O)O [compound 523] |
| 377 | 36 | CCCOc1cc(-c2cc(NCCn3c(C)cc4c(C)cc(F)cc43)ncn2)cc(F)c1C(=O)O [compound 524] |
| 14 | 38 | COc1cc(F)c(F)c2c1cc(C)n2CCNc1cc(-c2cc(C(F)(F)F)c(C(=O)O)s2)ncn1 [compound 525] |
| 230 | 10 | Cc1cc(F)cc2c1cc(C)n2CCNc1cc(-c2ccc(C(=O)O)c(OCC(C)C)c2)ncn1 [compound 526] |
| 134 | 8 | CCCCOc1cc(-c2cc(NCCn3c(C)cc4c(C)cc(F)cc43)ncn2)ccc1C(=O)O [compound 527] |
| 151 | 119 | COc1cc(F)cc2c1cc(C)n2CCNc1cc(-c2ccc(C(=O)O)c(C(C)(C)C)c2)ncn1 [compound 528] |
| 110 | 19 | COc1cc(Cl)cc2c1cc(C)n2CCNc1cc(-c2ccc(C(=O)O)c(CC(C)C)c2)ncn1 [compound 529] |
| 50 | 21 | COc1cc(F)cc2c1cc(C)n2CCNc1cc(-c2ccc(C(=O)O)c(CC(C)C)c2)ncn1 [compound 530] |
| 828 | 33 | CCOc1cc(-c2cc(NCCn3c(C)cc4c(C)ccc(F)c43)ncn2)cc(CC)c1C(=O)O [compound 532] |

| Compound | IC50 (EP4) [nM] | IC50 (EP2) [nM] |
| --- | --- | --- |
| COc1ccc(F)c2c1cc(C)n2CCNc1cc(-c2ccc(C(=O)O)c(OC3CCC3)c2)ncn1 [compound 472, 2-Cyclobutoxy-4-{6-[2-(7-fluoro-4-methoxy-2-methyl-indol-1-yl)-ethylamino]-pyrimidin-4-yl}-benzoic acid] | 66 | 5 |
